This is an account of results in patent EP4069710B1, “PD(I) COMPLEXES, PROCESS FOR THEIR PREPARATION AND USE THEREOF AS ANTITUMOUR AGENTS” (Universita' Ca' Foscari Venezia, priority 2019, dated 2021).

What all share (format): cell-based
The subject of one assay is OVCAR3. Description: Antiproliferative activity, cell viability by CellTiter-Glo after 96 hours. As to conditions: OVCAR3 (ovarian cancer), mean ± standard deviation of triplicate measurements. As to the method:
(§1) Tecan analyser, mod. Infinite® M1000.
(§2) Tests were performed for the purpose of determining the inhibitory concentration (IC50) of a compound of the invention towards tumour cell lines and on a control cell line; for comparative purposes, the same tests were performed with the cisplatin compound.
(§3) The tested cell lines were: A2780, A2780cis, OVCAR5, OVCAR3 e KURAMOCHI (ovarian cancer), A549 (lung cancer), HeLa (cervical cancer), DLD1 (colon cancer) and MRC-5 (control; lung fibroblasts). The mother solutions were obtained in dimethyl sulfoxide for the Pd(I) compound and in H2O for cisplatin.
(§4) The cells were kept, according to the protocols indicated by the suppliers, at 37 °C in an atmosphere containing 5% carbon dioxide. About 500 cells were plated on 96 different well-plates and kept under such conditions for 96 hours.
(§5) The viability of the cells was determined, after treatment of the cells with a 1:1 CellTiter-Glo® solution (registered trademark of Promega Corp., Madison, Wisconsin, USA) and DPBS, with the Tecan Infinite® M1000 instrument. The IC50 values were calculated by the response curves to the dose. The means and standard deviations were obtained from triplicate measurements.
On the technique in general: Cellular ATP, detected with luciferase, serves as a proxy for viable cell number.

A further assay has as its system Kuramochi. The description is as above. To be noted: Kuramochi (ovarian cancer), mean ± standard deviation of triplicate measurements. As to the method: as §1, §2, §3, §4, §5
The test system of a further assay is A2780cis. The description is as above. As to conditions: A2780cis (ovarian cancer), mean ± standard deviation of triplicate measurements. As to the method: as §1, §2, §3, §4, §5
In another assay the test system is OVCAR5. The assay is described as above. To be noted: OVCAR5 (ovarian cancer), mean ± standard deviation of triplicate measurements. As to the method: as §1, §2, §3, §4, §5
The subject of a further assay is DLD1. The description is as above. To be noted: DLD1 (colon cancer), mean ± standard deviation of triplicate measurements. As to the method:
as §1, §2, §3, §4, §5

For the next assay, the system named is MRC-5. Description: Antiproliferative activity on control cell line, cell viability by CellTiter-Glo after 96 hours. As to conditions: MRC-5 (control; lung fibroblasts), mean ± standard deviation of triplicate measurements. On the procedure:
as §1, §2, §3, §4, §5

On to `N.N.[Cl][Pt][Cl]` [Cisplatin, cis-diamine-dichloroplatinum(II)], for which the IC50 in the assay with OVCAR3 came to 2.2 ± 0.1 µM; in the assay with Kuramochi, 1.7 ± 0.3 µM; in the assay with A2780cis, 43 ± 3 µM; with OVCAR5 it was 5.2 ± 0.8 µM; with DLD1, 4.2 ± 0.5 µM; with MRC-5, 14 ± 1 µM.

A word on the IC50: it is the midpoint of a concentration-inhibition curve.
